Assay results from patent publication US7892782B2 (priority 1998, dated 2011).

How the values were obtained:
[1] = system: M. tuberculosis persister cells; conditions: data not shown
[2] = system: Staphylococcus aureus; format: cell-based; conditions: stationary phase ≅10^9 bacteria/ml, 100 μg/ml ampicillin, 3 days
[3] = system: Escherichia coli K12; format: cell-based; conditions: stationary phase ≅10^9 bacteria/ml, 50 μg/ml kanamycin, 3 days
[4] = system: M. tuberculosis; test: Incorporation of [3H]-uridine into RNA after addition of rifampicin; format: cell-based, Mycobacterium tuberculosis
Protocol: For incorporation of radioactive uridine, 10 ml of the culture for each time point was washed twice to remove the remaining rifampicin and then resuspended in 10 ml 7H9 medium followed by incubation with 10 μCi/ml of [^3H]-uridine for 20 hours. For 5* the culture was not washed after incubation with rifampicin and 10 μCi/ml of [^3H]-uridine was added to the culture which was further incubated in the presence of rifampicin for 20 hours. The RNA was extracted by methods known in the art. The RNA [^3H]-uridine incorporation was determined as counts per minute of trichloroacetic acid precipitated RNA. The results were confirmed in three independent experiments.

[5] = system: M. tuberculosis; test: RT-PCR of gene transcripts before and after rifampicin treatment; format: cell-based, Mycobacterium tuberculosis; conditions: 12 hours in growth medium alone
Protocol: The metabolic state of bacilli before and after rifampicin treatment was also assessed by examining total RNA which was extracted. RT-PCR was performed on the following genes; rpoB which encodes the rifampicin target (RNA polymerase sub-unit B); 16 kDa protein α-crystallin homolog); 16S rRNA and two Sigma 70 homologues, sigA and sigB.

[6] = system: M. tuberculosis H37Rv; format: cell-based, Mycobacterium tuberculosis

Question: For `O=C(O)CN(CCN(CC(=O)O)CC(=O)O)CC(=O)O` [EDTA], which “effect on persister cell walls and efficacy of rifampicin” value [1] is on record?
Answer: permeabilizes persister cell walls and increases the efficacy of rifampicin

Question: With `CC1(C)S[C@@H]2[C@H](NC(=O)[C@H](N)c3ccccc3)C(=O)N2[C@H]1C(=O)O` [ampicillin] as the compound, how does the “phenotypically resistant subpopulation remaining” value [2] read?
Answer: ~10^5 bacteria/ml

Question: How did the “phenotypically resistant subpopulation remaining” value [3] turn out when `NC[C@H]1O[C@H](O[C@H]2[C@H](O)[C@@H](O[C@H]3O[C@H](CO)[C@@H](O)[C@H](N)[C@H]3O)[C@H](N)C[C@@H]2N)[C@H](O)[C@@H](O)[C@@H]1O` [kanamycin] was run?
Answer: ~10^5 bacteria/ml

Question: What does the source list for `CO[C@H]1/C=C/O[C@@]2(C)Oc3c(C)c(O)c4c(O)c(c(/C=N/N5CCN(C)CC5)c(O)c4c3C2=O)NC(=O)/C(C)=C\C=C\[C@H](C)[C@H](O)[C@@H](C)[C@@H](O)[C@@H](C)[C@H](OC(C)=O)[C@@H]1C` [rifampicin]?
Answer: [3H]-uridine incorporation ([4]; 100 μg/ml rifampicin 1 day, washed, then 20 h with [3H]-uridine): 2228 ± 88 counts per minute; [3H]-uridine incorporation ([4]; 100 μg/ml rifampicin 2 days, washed, then 20 h with [3H]-uridine): 2316 ± 120 counts per minute; [3H]-uridine incorporation ([4]; 100 μg/ml rifampicin 3 days, washed, then 20 h with [3H]-uridine): 2430 ± 54 counts per minute; [3H]-uridine incorporation ([4]; 100 μg/ml rifampicin 4 days, washed, then 20 h with [3H]-uridine): 2318 ± 126 counts per minute; [3H]-uridine incorporation ([4]; 100 μg/ml rifampicin 5 days, washed, then 20 h with [3H]-uridine): 2388 ± 20 counts per minute; [3H]-uridine incorporation ([4]; 5*: 5 days, not washed, [3H]-uridine 20 h in the presence of rifampicin): 518 ± 10 counts per minute; increase of radioactive uridine incorporation after removal of rifampicin ([4]; medium alone versus in the presence of rifampicin (5 versus 5* days)): about 5 fold; increase of level of transcription (16K, sigA and rpoB transcripts) after removal of rifampicin [5]: 5- to 10 fold; Broth counts [6]: 10^2 bacteria/ml; Broth dilution counts of rifampicin treated cultures [6]: 10^2 bacteria/ml
